Results from patent publication US20090098097A1, “COMPOSITION FOR NORMALIZING BLOOD PRESSURE” (KANEKA CORPORATION, priority 2006, published 2009).

Experiments:
[1] = tested on: healthy male and female volunteers; test: Evaluation of blood pressure normalization by reduced coenzyme Q10 in healthy subjects; assay type: in vivo, human; conditions: for systolic blood pressure / diastolic blood pressure relative to before ingestion (100): 4 weeks after ingestion; for systolic blood pressure: before breakfast; for change in blood pressure after ingestion as compared to before ingestion (in words): 150 mg per day for 4 weeks
Protocol: Healthy male and female volunteers (20 subjects) ingested 5 soft capsules (total 150 mg) per day each containing 30 mg of reduced coenzyme Q10 (containing about 2% of oxidized coenzyme Q10), and the blood pressure before breakfast was measured before and after ingestion for 4 weeks. After the measurement, the subjects were divided into three groups of hypotension group (n=8, not more than 110 mmHg), normal blood pressure group (n=8, 110-130 mmHg) and mild hypertension group (n=4, 130-150 mmHg), according to the systolic blood pressure before ingestion, and analyzed.

healthy male volunteers = test: Evaluation of blood pressure normalization by oxidized coenzyme Q10 in healthy subjects; assay type: in vivo, human; conditions: for systolic blood pressure / diastolic blood pressure relative to before ingestion (100): 4 weeks after ingestion; for systolic blood pressure: before breakfast
Protocol: Healthy male volunteers (22 subjects) ingested soft capsule preparation containing oxidized coenzyme Q10 (150 mg) by 6 capsules (total 900 mg) per day, and the blood pressure before breakfast was measured before and after ingestion for 4 weeks. After the measurement, the subjects were divided into three groups of hypotension group (n=6, not more than 110 mmHg), normal blood pressure group (n=8, 110-130 mmHg) and mild hypertension group (n=8, 130-150 mmHg), according to the systolic blood pressure before ingestion, and analyzed. […] Consequently, a hypotension improving effect of oxidized coenzyme Q10 in healthy human subjects has been clarified.

SMILES | systolic blood pressure ([1]; hypotension group (n=8, not more than 110 mmHg), 150 mg per day soft capsules, before ingestion 99.6 ± 4.9) | change in blood pressure after ingestion as compared to before ingestion (in words) ([1]; hypotension group) | diastolic blood pressure relative to before ingestion (100) ([1]; hypotension group, 150 mg per day, **p < 0.01 U-test) | systolic blood pressure ([1]; mild hypertension group (n=4, 130-150 mmHg), 150 mg per day, before ingestion 140.5 ± 9.2) | change in blood pressure after ingestion as compared to before ingestion (in words) ([1]; mild hypertension group) | diastolic blood pressure relative to before ingestion (100) ([1]; mild hypertension group, 150 mg per day, *p < 0.05 U-test) | systolic blood pressure ([1]; normal blood pressure group (n=8, 110-130 mmHg), 150 mg per day, before ingestion 125.3 ± 3.1) | change in blood pressure after ingestion as compared to before ingestion (in words) ([1]; normal blood pressure group) | diastolic blood pressure relative to before ingestion (100) ([1]; normal blood pressure group, 150 mg per day) | systolic blood pressure (healthy male volunteers; hypotension group (n=6, not more than 110 mmHg), 900 mg per day soft capsules, before ingestion 105.5 ± 4.4) | diastolic blood pressure relative to before ingestion (100) (healthy male volunteers; hypotension group, 900 mg per day, **p < 0.01 U-test) | systolic blood pressure (healthy male volunteers; mild hypertension group (n=8, 130-150 mmHg), 900 mg per day, before ingestion 135.8 ± 4.6) | diastolic blood pressure relative to before ingestion (100) (healthy male volunteers; mild hypertension group, 900 mg per day) | systolic blood pressure (healthy male volunteers; normal blood pressure group (n=8, 110-130 mmHg), 900 mg per day, before ingestion 126.1 ± 2.7) | change in blood pressure after ingestion as compared to before ingestion (in words) (healthy male volunteers; normal blood pressure group, 900 mg per day for 4 weeks) | diastolic blood pressure relative to before ingestion (100) (healthy male volunteers; normal blood pressure group, 900 mg per day)
COc1c(O)c(C)c(C/C=C(\C)CC/C=C(\C)CC/C=C(\C)CC/C=C(\C)CC/C=C(\C)CC/C=C(\C)CC/C=C(\C)CC/C=C(\C)CC/C=C(\C)CCC=C(C)C)c(O)c1OC [reduced coenzyme Q10] | 117.5 ± 6.2 mmHg | significant increase in the blood pressure | (118**) | 125.1 ± 6.1 mmHg | significant decrease in the blood pressure | (89*) | 125.5 ± 9.1 mmHg | did not show significant variations | (100) | – | – | – | – | – | – | –
COC1=C(OC)C(=O)C(C/C=C(\C)CC/C=C(\C)CC/C=C(\C)CC/C=C(\C)CC/C=C(\C)CC/C=C(\C)CC/C=C(\C)CC/C=C(\C)CC/C=C(\C)CCC=C(C)C)=C(C)C1=O [oxidized coenzyme Q10] | – | – | – | – | – | – | – | – | – | 126.5 ± 2.9 mmHg | (120**) | 134.8 ± 9.4 mmHg | (100) | 127.6 ± 7.7 mmHg | did not show significant variations | (101)
